Laboratory results taken from US20230158151A1 (NURIX THERAPEUTICS, INC., priority 2021, published 2023).

Biological target: T1, ITK (Mus musculus, UniProt Q03526)
T1 construct: administered to mice orally; from tissue; host or cells: mouse splenocytes (spleen) after oral dosing
T1 sequence (Q03526 1-625): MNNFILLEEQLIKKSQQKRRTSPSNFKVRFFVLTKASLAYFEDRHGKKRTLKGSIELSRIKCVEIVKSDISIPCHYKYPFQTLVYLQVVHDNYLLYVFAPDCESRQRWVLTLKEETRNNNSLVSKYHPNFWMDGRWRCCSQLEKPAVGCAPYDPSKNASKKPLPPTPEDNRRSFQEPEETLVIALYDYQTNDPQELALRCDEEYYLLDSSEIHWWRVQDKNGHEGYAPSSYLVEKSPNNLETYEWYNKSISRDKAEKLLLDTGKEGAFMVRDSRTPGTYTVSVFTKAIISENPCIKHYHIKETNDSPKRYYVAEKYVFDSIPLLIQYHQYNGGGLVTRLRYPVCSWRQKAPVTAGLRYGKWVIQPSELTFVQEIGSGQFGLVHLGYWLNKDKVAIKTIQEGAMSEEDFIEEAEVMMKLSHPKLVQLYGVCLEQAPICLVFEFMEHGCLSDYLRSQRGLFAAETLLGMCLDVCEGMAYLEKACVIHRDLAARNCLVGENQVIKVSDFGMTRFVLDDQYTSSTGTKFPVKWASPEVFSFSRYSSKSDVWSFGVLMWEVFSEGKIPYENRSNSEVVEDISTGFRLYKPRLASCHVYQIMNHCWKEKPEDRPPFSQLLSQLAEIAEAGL
Assay: Western Assay for ITK Degradation in Mouse Splenocytes after oral administration
Format: in vivo
Conditions: for ITK degradation in vivo by Western blotting: mouse splenocytes, oral
Description: Compounds 30 and 31 were administered to mice orally. After 6 hours, splenocytes cells were harvested. ITK was evaluated by Western blotting. Media was removed and cell pellets were lysed in 100 μL lysis buffer (RIPA buffer (Fisher, PI89901), cOmplete Mini EDTA-free protease inhibitor (Sigma 11836170001), Protease Inhibitor Cocktail (Sigma, P2714), Phosphatase Inhibitor Cocktail 2 and 3 (Sigma, P5726 and P0044), Benzonase (Sigma, E1014)). Cells were lysed overnight at −20° C. Following thaw, cells were centrifuged for 10 min at 13000 rpm, then transferred to new tube. Protein levels were determined by BCA Assay performed according to manufacturer's protocol (EMD Millipore, cat. no. 71285-3). Samples were combined with (4×) LDS Sample Buffer and (10×) Reducing Agent and H2O to equally load 20 μg protein per lane of a 26-well NuPAGE 4-12% Bis-Tris protein gel (1.0 mm, Thermo cat. no. NP0326). Samples were separated by running gels at constant 150 V in NuPAGE MES SDS Running Buffer. Following electrophoresis, proteins were transferred to nitrocellulose membranes using an iBlot Gel Transfer Device and iBlot Gel Transfer Stacks (Thermo cat. no. IB21001 and IB301001) and transfer method P3 (20V for 7 min). Membranes were blocked for 1 hr in 5% milk solution (TBS (0.2% Tween-20)). Following blocking, membranes were incubated with primary antibody (1:1000 CST ITK (2F12) #2380) overnight at 4° C. with gentle shaking. Blots were washed 2× in TBS (0.2% Tween-20), 30 min per wash. Following washes, blots were incubated in secondary HRP-conjugated antibody (Promega anti-Mouse IgG (H+L) HRP cat. no. W4021), 1:5000 in 5% milk solution (TBS (0.2% Tween-20)), for 1 hr at room temperature with gentle shaking. Blots were washed 2× in TBS (0.2% Tween-20), 30 min per wash. Blots were incubated with 1:1 mix of ECL reagents 1 & 2 (Amersham ECL Western Blotting Detection Reagent, cat. no. RPN2106) for 2 min at room temperature. Bands were visualized using a Protein Simple imager. Blots were then re-probed with a combination of anti-actin antibody (Sigma Monoclonal Mouse Anti-β-Actin (clone AC-15), cat. no. A5441) and secondary HRP-conjugated antibody (Promega anti-Mouse IgG (H+L) HRP, cat. no. W4021) and similar steps were taken for incubation, wash, detection and visualization steps as above. The data was analyzed using Alpha View software. The densitometric reading for each sample band was normalized to that of the corresponding actin band per lane. Approximate % ITK remaining per sample was calculated as follows: […]
Once % ITK remaining has been calculated for each sample, groups are averaged together to show an means % ITK normalized to actin and relative to control.
Compounds 30 and 29 were administered to mice orally. After 6 hours or 24 hours, splenocytes cells were harvested. ITK was evaluated by Western blotting. Plasma concentrations were determined by LC/MS/MS. Plasma samples were protein precipitated by addition of 100 μl of acetonitrile containing 50 ng/ml of internal standard. The resulting mixture was vortexed and centrifuged at 4000 RPM for 5 minutes. An aliquot of the resultant supernatant (75 μl) was added to 75 μl of 0.1% formic acid in water to constitute the final sample for injection. Samples were injected on a Shimadzu Exion LC Binary Gradient AD Pump HLPC system connected to a Sciex QTRAP 6500+ mass spectrometer. Five μl of sample was injected onto a Waters Acquity UPLC BEH C18 column 130A (2.1×30 mm, […]) at 40° C. utilizing a flow rate of 700 μl/minute. Mobile Phase A was 0.1% formic acid in water and mobile phase B was 0.1% formic acid in acetonitrile. A linear gradient of 15-95% B over 1.0 minute was used. The mass spectrometer was operated in positive ion electrospray mode with multiple reaction monitoring for maximum sensitivity. Sciex Analyst software (version 1.6.3) was used for LC/MS/MS instrument control and acquisition. […]

[1] = % ITK remaining in mouse splenocytes

Compound | ITK (%) 90 mpk PO, 6 h [1] | ITK degradation in vivo by Western blotting (6 hours) | ITK degradation in vivo by Western blotting (24 hours) | ITK (%) 60 mpk PO, 24 h (% ITK remaining in mouse splenocytes, 60 mpk PO, 24 h)
C[C@@]12Cc3[nH]nc(C(=O)Nc4cnn(CC5CN(C(=O)C6CN(c7ccc(C8CCC(=O)NC8=O)cn7)C6)C5)c4)c3C[C@@H]1C2(F)F (stereo partly drawn) [Compound 23, (4aS,5aR)—N-(1-((1-(1-(5-(2,6-dioxopiperidin-3-yl)pyridin-2-yl)azetidine-3-carbonyl)azetidin-3-yl)methyl)-1H-pyrazol-4-yl)-5,5-difluoro-5a-methyl-1,4,4a,5,5a,6-hexahydrocyclopropa[f]indazole-3-carboxamide] | 129% |  |  | 
C[C@@H](C(=O)N(C)c1ccc2cc(-c3n[nH]c4c3CCC(C)(C)C4)[nH]c2c1)N1CCN(CC2CCN(c3ccc(N4CCC(=O)NC4=O)cn3)CC2)CC1 [Compound 31, (S)—N-(2-(6,6-dimethyl-4,5,6,7-tetrahydro-1H-indazol-3-yl)-1H-indol-6-yl)-2-(4-((1-(5-(2,4-dioxotetrahydropyrimidin-1(2H)-yl)pyridin-2-yl)piperidin-4-yl)methyl)piperazin-1-yl)-N-methylpropanamide] | 116% | degraded ITK in vivo | degraded ITK in vivo | 
CN(C(=O)CCC1CCN(c2ccc(C3CCC(=O)NC3=O)cn2)CC1)c1ccc2cc(-c3n[nH]c4c3C[C@@H]3C(F)(F)[C@]3(C)C4)[nH]c2c1 (stereo partly drawn) [Compound 4, N-(2-((4aS,5aR)-5,5-difluoro-5a-methyl-1,4,4a,5,5a,6-hexahydrocyclopropa[f]indazol-3-yl)-1H-indol-6-yl)-3-(1-(5-(2,6-dioxopiperidin-3-yl)pyridin-2-yl)piperidin-4-yl)-N-methylpropanamide] | 76% |  |  | 
C[C@@H](C(=O)N(C)c1ccc2cc(-c3n[nH]c4c3C[C@@H]3C(F)(F)[C@]3(C)C4)[nH]c2c1)N1CCN(CC2CCN(c3ccc(N4CCC(=O)NC4=O)cn3)CC2)CC1 [Compound 29, (S)—N-(2-((4aS,5aR)-5,5-difluoro-5a-methyl-1,4,4a,5,5a,6-hexahydrocyclopropa[f]indazol-3-yl)-1H-indol-6-yl)-2-(4-((1-(5-(2,4-dioxotetrahydropyrimidin-1(2H)-yl)pyridin-2-yl)piperidin-4-yl)methyl)piperazin-1-yl)-N-methylpropanamide] | 14% | degraded ITK in vivo | degraded ITK | 

Next, values leading:

ITK (%) 90 mpk PO, 6 h [1] | ITK degradation in vivo by Western blotting (6 hours) | ITK degradation in vivo by Western blotting (24 hours) | ITK (%) 60 mpk PO, 24 h (% ITK remaining in mouse splenocytes, 60 mpk PO, 24 h) | Compound
 |  |  | 93% | CC1(C)CCc2c(-c3cc4ccc(C(=O)N5CCC(CN6CCC(c7ccc(C8CCC(=O)NC8=O)cc7)CC6)CC5)cc4[nH]3)n[nH]c2C1 (centres unmarked) [Compound 39, 3-(4-(1-((1-(2-(6,6-dimethyl-4,5,6,7-tetrahydro-1H-indazol-3-yl)-1H-indole-6-carbonyl)piperidin-4-yl)methyl)piperidin-4-yl)phenyl)piperidine-2,6-dione]
92% |  |  |  | CN(C(=O)CC1CCN(CC2CCN(c3ccc(C4CCC(=O)NC4=O)cn3)CC2)CC1)c1ccc2cc(-c3n[nH]c4c3C[C@@H]3C(F)(F)[C@]3(C)C4)[nH]c2c1 (stereo partly drawn) [Compound 6, N-(2-((4aS,5aR)-5,5-difluoro-5a-methyl-1,4,4a,5,5a,6-hexahydrocyclopropa[f]indazol-3-yl)-1H-indol-6-yl)-2-(1-((1-(5-(2,6-dioxopiperidin-3-yl)pyridin-2-yl)piperidin-4-yl)methyl)piperidin-4-yl)-N-methylacetamide]
11% |  |  |  | C[C@@H](C(=O)N(C)c1ccc2cc(-c3n[nH]c4c3CCC(C)(C)C4)[nH]c2c1)N1CCN(CC2CCN(c3ccc(C4CCC(=O)NC4=O)cn3)CC2)CC1 (stereo partly drawn) [Compound 32, (2S)—N-(2-(6,6-dimethyl-4,5,6,7-tetrahydro-1H-indazol-3-yl)-1H-indol-6-yl)-2-(4-((1-(5-(2,6-dioxopiperidin-3-yl)pyridin-2-yl)piperidin-4-yl)methyl)piperazin-1-yl)-N-methylpropanamide]
